TGI data for 16 compounds are collected here from PubChem BioAssay (NCI).

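Test compounds were applied to cells in 96-well plates for 48 hours at 5 doses. TGI is the concentration that stops growth completely.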 Bounds are passed on as bounds.

Among the test systems are TK-10 renal; UACC-62 melanoma; M14 melanoma; SK-MEL-28 melanoma; COLO 205 colon; K-562 leukemia; HOP-92 NSCLC; NCI/ADR-RES ovarian; SNB-75 CNS; RXF 393 renal.
Common to all, as to assay: inhibition of tumour cell growth, NCI panel, 48 h

Turning to `O=C(O)c1nc2cc(C(F)(F)F)ccc2[nH]c1=O`, the TGI in the test with TK-10 renal, with UACC-62 melanoma, in the test with M14 melanoma, in the test on SK-MEL-28 melanoma, in the test with COLO 205 colon and in the test with K-562 leukemia was greater than 100 µM throughout. Also, the TGI in the test with HOP-92 NSCLC and in the test on NCI/ADR-RES ovarian was greater than 100 µM throughout.
For the compound `Clc1ccc2c(Cl)nc(-c3ccccc3)nc2c1`, the TGI is greater than 100 µM in the test on TK-10 renal; greater than 100 µM with SNB-75 CNS; greater than 100 µM with UACC-62 melanoma; greater than 100 µM with SK-MEL-28 melanoma; greater than 100 µM in the test on COLO 205 colon; 71.2 µM in the test on RXF 393 renal. In the test with K-562 leukemia, this compound yielded a TGI greater than 100 µM.
For `Cc1cc(=O)[nH]c(NN2C(Cl)C(=O)C2c2c(O)ccc3ccccc23)n1` (centres undefined), the TGI is greater than 100 µM with TK-10 renal; 39.2 µM in the test on SNB-75 CNS; 47.4 µM in the test on UACC-62 melanoma; 29 µM in the test on M14 melanoma; 44.1 µM with SK-MEL-28 melanoma; 58.2 µM in the test with COLO 205 colon. Further, the TGI is 26.6 µM with RXF 393 renal, greater than 100 µM in the test on K-562 leukemia and 34.5 µM with HOP-92 NSCLC.
For `COC(=O)C(CCSc1ccccc1)C(=O)OC`, the TGI with SNB-75 CNS, in the test with UACC-62 melanoma, in the test with M14 melanoma, in the test with SK-MEL-28 melanoma, in the test on COLO 205 colon and with RXF 393 renal was greater than 100 µM each time. Moreover, the TGI in the test with HOP-92 NSCLC and in the test with NCI/ADR-RES ovarian was greater than 100 µM in each case.
As to `Nc1ccc(-c2nc3ccc(Cc4ccc5nc(-c6ccc(N)cc6)oc5c4)cc3o2)cc1`, the TGI with TK-10 renal, in the test with UACC-62 melanoma, in the test with M14 melanoma, with SK-MEL-28 melanoma, in the test on COLO 205 colon and with RXF 393 renal was greater than 100 µM in each case. In addition, the TGI in the test with K-562 leukemia, in the test with HOP-92 NSCLC and with NCI/ADR-RES ovarian was greater than 100 µM in each case.
As to `CCN(CC)C(=O)N[C@@H](Cc1ccccc1)C(=O)NC`, the TGI with SNB-75 CNS, in the test on UACC-62 melanoma, in the test with M14 melanoma, with SK-MEL-28 melanoma, with COLO 205 colon and in the test on RXF 393 renal was greater than 100 µM in each case. The TGI in the test with K-562 leukemia and in the test with NCI/ADR-RES ovarian was greater than 100 µM each time.
Turning to `N#Cc1nc(C2SCCCS2)oc1N`, the TGI with TK-10 renal is greater than 100 µM; in the test on SNB-75 CNS, 0.843 µM; in the test on UACC-62 melanoma it was greater than 100 µM; in the test on M14 melanoma it was greater than 100 µM; with SK-MEL-28 melanoma it was greater than 100 µM; with K-562 leukemia, greater than 100 µM. The compound further had a TGI in the test on HOP-92 NSCLC greater than 100 µM.
For the compound `NC(N)=NCCCC(NCc1c2ccccc2[n+]([O-])c2ccccc12)C(=O)O` (centres undefined), the TGI with TK-10 renal is greater than 100 µM; in the test on SNB-75 CNS, 88.7 µM; with UACC-62 melanoma, greater than 100 µM; with M14 melanoma, greater than 100 µM; with SK-MEL-28 melanoma, greater than 100 µM; in the test on COLO 205 colon, greater than 100 µM. Moreover, in the test on K-562 leukemia, the TGI is greater than 100 µM.
In the case of `COc1cc(/C=C2/C(=O)N=C(NC(C)=O)N2C)ccc1OC(C)=O`, the TGI in the test with TK-10 renal, in the test with SNB-75 CNS, with UACC-62 melanoma, with M14 melanoma, with SK-MEL-28 melanoma and with COLO 205 colon was greater than 100 µM in each case. The TGI with HOP-92 NSCLC and in the test on NCI/ADR-RES ovarian was greater than 100 µM in each case.
As to `C=CCOCn1ccc(NC(=O)c2ccccc2)nc1=O`, the TGI in the test with TK-10 renal, in the test with SNB-75 CNS, with UACC-62 melanoma, in the test with M14 melanoma, in the test with SK-MEL-28 melanoma and in the test on COLO 205 colon was greater than 100 µM throughout. The TGI in the test with K-562 leukemia was greater than 100 µM.
As to `C=CCN1C[C@@H](C)N([C@@H](c2ccccc2)c2ccc(C(=O)N(CC)CC)cc2)C[C@@H]1C`, the TGI is greater than 100 µM with UACC-62 melanoma; greater than 100 µM in the test on M14 melanoma; greater than 100 µM in the test on SK-MEL-28 melanoma; greater than 100 µM in the test on COLO 205 colon; 89 µM in the test with HOP-92 NSCLC; greater than 100 µM in the test with NCI/ADR-RES ovarian.
For `CC1=C(c2ccc(C)cc2)NC(=S)C(C)C(c2ccc(C)cc2)=N1` (centres undefined), the TGI in the test on TK-10 renal is greater than 100 µM; in the test with SNB-75 CNS, greater than 100 µM; in the test on UACC-62 melanoma, greater than 100 µM; in the test with SK-MEL-28 melanoma, greater than 100 µM; with COLO 205 colon, greater than 100 µM; with RXF 393 renal it was 70.9 µM. In addition, the TGI in the test on K-562 leukemia and in the test on NCI/ADR-RES ovarian was greater than 100 µM throughout.
Turning to `CCCC(=O)[O-].CCCC(=O)[O-].N.N.N.N.[Co+3].[O-][Cl+3]([O-])([O-])[O-]`, the TGI in the test with TK-10 renal, in the test with SNB-75 CNS, in the test on UACC-62 melanoma, in the test with M14 melanoma, in the test on SK-MEL-28 melanoma and in the test with COLO 205 colon was greater than 100 µM in each case. The TGI in the test with K-562 leukemia and in the test with HOP-92 NSCLC was greater than 100 µM in each case.
For the compound `COc1cc2c(cc1O)-c1c(OC)c(O)cc3c1C(C2)N(C)CC3` (centres undefined), the TGI in the test with TK-10 renal, with SNB-75 CNS, with UACC-62 melanoma, in the test with M14 melanoma, in the test with COLO 205 colon and in the test on RXF 393 renal was greater than 100 µM in each case. The TGI in the test on HOP-92 NSCLC and in the test on NCI/ADR-RES ovarian was greater than 100 µM throughout.
`CC1C(=O)CC[C@@]2(C)C(=O)CCCC12O` (some centres undefined): the TGI with TK-10 renal, with UACC-62 melanoma, with M14 melanoma, in the test with SK-MEL-28 melanoma, in the test on COLO 205 colon and with RXF 393 renal was greater than 100 µM throughout. Also, the TGI in the test on K-562 leukemia, in the test with HOP-92 NSCLC and in the test on NCI/ADR-RES ovarian was greater than 100 µM in each case.
With `O=C1C=C(NCCc2cc(Cl)c(O)c(Cl)c2)C(=O)c2[nH]cnc21`, the TGI in the test with TK-10 renal is greater than 100 µM; in the test on UACC-62 melanoma, 41.1 µM; in the test on M14 melanoma, 26.7 µM; in the test with SK-MEL-28 melanoma it was 65.9 µM; in the test with COLO 205 colon, 52.7 µM; in the test on K-562 leukemia, 55.4 µM. The compound also showed a TGI in the test on NCI/ADR-RES ovarian greater than 100 µM.
